Like-named read-outs stand apart in the source and are kept apart here.
What was measured:
[1] = tested on: human microvascular endothelial cells (HMEC) spheroids; experiment: Spheroid tubule growth assay; assay type: cell-based; conditions: matrigel with VEGF; serotonin 50 nM, R-DOI 100 nM, TCB2 500 nM
Experimental: FIG. 16 is a series of fluorescent micrographs showing the effect of 5HT2A receptor agonists on vascular tubule growth from tissue-like spheroids.
HMEC cells were cultured in specially coated U-shaped bottom 96 well plates in order to form tissue-like three-dimension spheroids. Spheroids were subsequently implanted into wells that contained matrigel basement membranes supplemented with vascular endothelial growth factor (VEGF) or starved (Starvation control-no VEGF). Culture media was treated with either serotonin (50 nM), (R-DOI (100 nM), or TCB2 (500 nM) outgrowth from the spheroids of vascular-like structures was monitored microscopically.

[2] = tested on: Herpes Simplex Virus type 1 (HSV-1) RE strain; experiment: Herpes stromal keratitis model, BALB/c mice, topical eye drops, clinical scoring and histology; assay type: in vivo; conditions: for animal body weight: HSV-1 infected mice, relative to BSS controls; for HSV-induced pathological vascularization of the eye: mouse models of herpetic keratitis, ophthalmic formulation
Experimental: DOI drops were topically applied for 7 days post infection and chronic disease was assessed up to day 15.
There is a complete absence of inflammatory or red blood cells and no vascularization of corneal tissue. 2nd row panels: HSV infection and long-term inflammatory responses induces disruption of the epithelial layer, thickening of the stroma, and identifiable vascularization of corneal tissue (yellow arrows) with extensive presence of immune infiltrates.
16 BALB/c mice were randomly sorted into 3 treatment arms: 1) Ophthalmic Balanced Saline Solution diluted 1:1 in PBS (BSS+PBS) treated (6 mice); 2) DOI treated (XTPFDOI) (5 mice); 3) 1.0% TFT (TFT+PBS) (5 mice). Animals were anesthetized with […]:ketamine and both eyes were scarified in a cross hatch pattern using a curved needle. Immediately following ocular scarification, eyes were inoculated with a 3 microliter drop containing 10,000 plaque forming units (PFU) of Herpes Simplex Virus type 1 (HSV-1) RE strain. The next morning following infection, animals were treated with the respective treatment as assigned within their treatment arm. Treatments were applied topically to the eye in a 4 microliter drop. Drops were applied 4 time per day from 9:00 am to 5:30 pm, starting immediately following clinical scoring. Treatments were applied for the first 8 days post infection and then stopped. Clinical scoring was done using a slit lamp biomicroscope magnified at 16× on the days indicated by a single individual masked to the drug treatment parameters. Slit lamp biomicroscopy also included fluorescein exclusion labeling of the corneal surface following scoring of all clinical parameters. Each eye was scored independently. Animal deaths were recorded if euthanasia was required due to severe encephalitis or if animals died from HSV-associated disease. Clinically clear eyes were scored as such if no apparent signs of disease were present in any clinical parameter during the chronic phase.
At day 15 post infection, a stage that would be during chronic immune-associated disease with no virus present, animals were euthanized and the eyes were removed for histology. Random representative eyes were prepared by taking sections through the central cornea and processed by H&E histology for visualization. Sections were examined microscopically and photographed across the central cornea.

[3] = tested on: Herpes Simplex Virus type 1 (HSV-1) RE strain; experiment: Herpes stromal keratitis model, C57bl/6 mice, topical eye drops; assay type: in vivo
[4] = tested on: VEGF-mediated corneal vascularization; experiment: VEGF-mediated ocular vascularization model, topical DOI; assay type: in vivo, rabbit; conditions: eyes treated with DOI
Experimental: A rabbit corneal micropocket assay is used to assess the ability of topically administered DOI to prevent VEGF-mediated corneal vascularization. VEGF or saline control slow release micropellets are generated as described previously. A corneal micropocket is created in each rabbit eye 3.0 mm from the corneal limbus, and micropellets are implanted. Starting the day after implant, paired OD and OS eyes are treated four times daily with either control (OD eyes) or DOI (OS eyes) drops, respectively. The utilization of sister eyes for topical drug evaluation controls for animal-to-animal variability. Eyes are clinically assessed daily and imaged by slit lamp biomicroscopy as described in all other ocular studies herein.
VEGF-induced vascularization and vessel permeability can lead to corneal edema, inflammation, and ocular clouding. Therefore, a panel of clinical parameters (described herein) is assessed daily by fluorescent slit-lamp biomicroscopy to ascertain the therapeutic effects of topical DOI treatment on vascularization-mediated eye disease.
VEGF is a known mediator of vascular permeability and we have observed in this model system that edema and chemosis is common, irrespective of the extent of vascularization induced. […]

[5] = tested on: HSV-1; set-up: species or system mice; conditions: 500 nM; for HSV-1 reactivation from latency (in words): ex vivo TG explants
[6] = tested on: healthy retinal pigment epithelial cells (APRE); experiment: Cytotoxicity by lysis, healthy retinal cells; assay type: cell-based; conditions: highest dose tested
Experimental: (§1) FIG. 17 is a series of graphs showing the effect of R-DOI dose on cytotoxicity of healthy retinal pigment epithelial cells (APRE) and cancerous retinoblastoma cells (Y-79) at 24 hours (top), 48 hours (middle), and 72 hours (bottom).
(§2) Healthy (APRE) and cancerous (Y-79) retinal cell lines were treated with varying doses of R-DOI and monitored for cytotoxicity by lysis at 24 hour intervals.

[7] = tested on: cancerous retinoblastoma cells (Y-79); experiment: Cytotoxicity by lysis, retinoblastoma cells; assay type: cell-based; conditions: varying doses
Experimental: as §1, §2

[8] = tested on: aortic rings; experiment: Aortic ring assay (VEGF-mediated neovascularization); set-up: species or system mice
Experimental: FIG. 13 is a series of photographs showing VEGF-mediated neovascularization from aortic rings in the presence of R-DOI, TCB2, and 4F4PP.
These aortic rings are implanted into matrigel basement membrane and incubated in endothelial cell growth medium containing vascular endothelial growth factor. Aortic rings are continuously incubated in the presence of 5-HT2A receptor agonists and antagonists at the indicated concentrations and examined by microscopy daily. Extensive sprouting, branching and networking of new blood vessels can be observed in control aortic rings, where multiple images needed to be stitched together in order to capture the extensive blood vessel network formed.

[9] = relative to BSS controls and TFT controls, by day 12 post-infection

With `NCCc1c[nH]c2ccc(O)cc12` [Serotonin, 5 hydroxytryptamine, reference compound] the “vascular-like tubular growth from HMEC spheroids” value [1] was “induced vascularization-like replication and tubule growth”.
With `O=c1[nH]c(=O)n([C@H]2C[C@H](O)[C@@H](CO)O2)cc1C(F)(F)F` [TFT, trifluorothymidine, reference compound] the HSV replication ([2]; 1% TFT) was “complete inhibition of HSV replication” and the animal body weight [2] was “did not change body weight relative to BSS controls”.
In the case of `COc1cc(CC(C)N)c(OC)cc1I` (stereo not drawn) [DOI, 1-(4-Iodo-2,5-dimethoxyphenyl)propan-2-amine], the animal body weight [2] was “retained”, the “eyes exhibiting complete clinical resolution” value ([2]; by day 15) was 60% and the “histopathology of the eye (cornea)” value ([2]; day 15 post infection) was “normal ocular morphology with an absence of clinical signs of ocular disease”. For the same compound, the “development of all clinically scored parameters” value ([2]; drops for 7 days post infection, chronic disease assessed up to day 15) was “suppressed development of all clinically scored parameters”, the “control of acute and chronic vision-threatening disease compared to TFT” value ([2]; herpetic eye disease model) was “superior at controlling both acute and chronic vision-threatening disease” and the neovascularization score [2, 9] was “decreased”. For the same compound, the slit lamp score [2, 9] was “decreased”, the stroma capacity score [2, 9] was “decreased” and the “clinical scores (three metrics)” value ([3]; compared to BSS control, by day 16 post-infection) was “even greater improvement in each metric”. The “clinical scores (slit-lamp biomicroscopy, stromal opacity/inflammation, corneal neovascularization)” value ([3]; relative to BSS controls, by day 12 post-infection, 4 μl/eye 4x daily for 8 days) was “decreased score in all three metrics”, the “vascular-like tubular growth from HMEC spheroids” value [1] was “abrogated formation of vascular-like tubular growth” and the “clinical presentation of edema and chemosis” value [4] was “greatly reduced”. The “vascularization of the eye” value [4] was “resolution of vascularization”, the “ganglia positive for infectious HSV-1 (number/total)” value (from here on “ganglia positive … (number/total)”) ([5]; day 1 post-explant) was 0/7 and the “percentage positive for infectious HSV-1” value ([5]; day 1 post-explant) was “(0%)”. The “ganglia positive … (number/total)” value ([5]; day 2 post-explant) was 0/7, the “percentage positive for infectious HSV-1” value ([5]; day 2 post-explant) was “(0%)” and the “ganglia positive … (number/total)” value ([5]; day 3 post-explant) was 0/7. The “percentage positive for infectious HSV-1” value ([5]; day 3 post-explant) was “(0%)”, the “ganglia positive … (number/total)” value ([5]; day 4 post-explant) was 0/7 and the “percentage positive for infectious HSV-1” value ([5]; day 4 post-explant) was “(0%)”. For the same compound, the “ganglia positive … (number/total)” value ([5]; day 5 post-explant) was 0/7, the “percentage positive for infectious HSV-1” value ([5]; day 5 post-explant) was “(0%)” and the “ganglia positive … (number/total)” value ([5]; day 6 post-explant) was 0/7. The “percentage positive for infectious HSV-1” value ([5]; day 6 post-explant) was “(0%)”, the “ganglia positive … (number/total)” value ([5]; day 7 post-explant) was 0/7 and the “percentage positive for infectious HSV-1” value ([5]; day 7 post-explant) was “(0%)”. The “ganglia positive … (number/total)” value ([5]; day 8 post-explant) was 1/7, the “percentage positive for infectious HSV-1” value ([5]; day 8 post-explant) was “(14.3%)” and the “ganglia positive … (number/total)” value ([5]; day 9 post-explant) was 1/7. The “percentage positive for infectious HSV-1” value ([5]; day 9 post-explant) was “(14.3%)”, the “ganglia positive … (number/total)” value ([5]; day 10 post-explant) was 2/7 and the “percentage positive for infectious HSV-1” value ([5]; day 10 post-explant) was “(28.6%)”. For the same compound, the “delay in reactivation of HSV-1 from TGs” value ([5]; relative to mock) was 2 fold, the “degree of reactivation and amount of infectious virus shed from latent neurons (PFU/ml/TG; PFU/ml/positive TG)” value ([5]; relative to mock treated neurons) was “significantly inhibited the degree of reactivation and amount of infectious virus shed from latent neurons” and the “HSV-1 reactivation from latency (in words)” value (“HSV-1 reactivation” below) [5] was “maintains latency of HSV-1 within reactivation induced neurons”.
In the case of `COc1cc(C[C@@H](C)N)c(OC)cc1I` [R-DOI, R-2,5-Dimethoxy-4-iodoamphetamine], the cytotoxicity by lysis [6] was “modest cytotoxicity”, the cytotoxicity by lysis ([7]; Y-79, 24 hours) was “strong, dose-dependent toxicity” and the cytotoxicity by lysis ([7]; Y-79, 48 hours) was “killing effect was saturated at all doses”. For the same compound, the “HSV-induced pathological vascularization of the eye” value [2] was “suppressed HSV-induced pathological vascularization of the eye”, the “HSV-induced pathological vascularization of the eye” value ([2]; listed as (R)-DOI) was “demonstrated anti-vascularization properties” and the “inhibitory effects for neovascularization, sprouting, branching, and networking” value ([8]; 10 nM concentration) was “began to no longer be as effective”. The “blood vessel sprouting, branching and formation” value ([8]; VEGF-containing endothelial growth medium, matrigel) was “inhibited blood vessel sprouting, branching and formation”, the “HSV-1 reactivation” value [5] was “inhibits HSV-1 reactivation from latent neurons” and the “HSV-1 reactivation” value ([5]; listed as (R)-DOI) was “inhibited HSV-1 reactivation from latency”.
